“Also recorded” adds a separate entry of the source.
Assays:
[1] = tested on: patients with hypertension; conditions: cited from earlier work; for patients who developed diabetes: losartan compared with atenolol
Elderly = conditions: candesartan compared with placebo; nonsignificant; cited from earlier work
hypertensive population = conditions: captopril compared with a β-blocker or a diuretic; cited from earlier work
[2] = compared with metoprolol; cited from earlier work
hypertensive rats = conditions: cited from earlier work
[3] = tested on: obese, hypertensive, and dyslipidemic patients; conditions: given for 12 weeks; cited from earlier work
[4] = tested on: patients with left ventricular dysfunction; test: Retrospective analysis of Montreal Heart Institute patients of the SOLVD trials: new-onset diabetes (FPG≧126 mg/dL at 2 visits); assay type: in vivo, human
From the text: The patients from the Montreal Heart Institute who were randomized in the SOLVD trials were included in this study. SOLVD was a multicenter, double-blind, randomized, placebo-controlled trial that assessed the effect of the ACE inhibitor enalapril on survival in patients with left ventricular dysfunction (ejection fraction≦35%). The details of the trial have been described elsewhere.^12 Briefly, the prevention trial included 4228 patients with asymptomatic left ventricular dysfunction, and the treatment trial randomized 2569 patients with congestive heart failure from June 1986 to August 1991. Patients were randomized to enalapril (5 to 20 mg/day) or placebo. Exclusion criteria included age >80 years, unstable angina pectoris, myocardial infarction in the previous month, severe pulmonary disease, renal insufficiency (creatinine level>177 μmol/L [2 mg/dL]), and intolerance to ACE inhibitor or current ACE inhibitor use. Follow-up visits were scheduled 2 and 6 weeks after randomization and every 4 months until the end of the study, for a mean follow-up of 3.4 and 3.1 years for the treatment and prevention trials, respectively.
Baseline characteristics, past medical history, and medication profiles at the time of enrolment into the SOLVD trials were obtained from the SOLVD databases. Fasting plasma glucose (FPG) was not collected for research purposes in the SOLVD trials. However, follow-up of patients in SOLVD involved regular blood samples, including FPG, at almost every research visit. Accordingly, the medical file of each patient was reviewed, and FPG results were collected. Chart reviewers were blinded to treatment allocation.
A diagnosis of new onset diabetes during the follow-up period was defined according to the American Diabetes Association criteria^13 as a FPG≧126 mg/dL (7.0 mmol/L) at 2 different visits. For the purpose of the present study, the visits in which FPG≧126 occurred during infection, trauma, or acute myocardial infarction were not included.
Participants with diabetes at baseline (history of diabetes or FPG≧126 mg/dL at screening visit) were excluded. The study population was further divided among patients with impaired FPG at baseline (110 mg/dL[6.1 mmol/L]≦FPG<126mg/dL [7.0 mmol/L]) and those with normal FPG at baseline (FPG<110 mg/dL).
The baseline characteristic of the 2 groups were compared using Student's t test for continuous variables and the X^2 test for categorical variables. Incidence of diabetes in the 2 groups was compared with the X^2 test. Time to occurrence of diabetes during the follow-up was analyzed with Kaplan-Meier curves and compared with the log-rank test. To analyze the effect of the treatment (enalapril) on development of diabetes, a Cox regression analysis was used to take into account the effect of potential confounding baseline variables (age, sex, current smoking, history of hypertension, and weight) and time-dependent variables (systolic blood pressure; diastolic blood pressure; and use of β-blockers, diuretics, calcium-channel blockers, antiplatelet agents, or antiarrhythmics). Cox proportional-hazard models were performed for each variable, with treatment (enalapril) forced in all models. Variables with a P≦0.2 were included in a multivariate Cox proportional hazard model. […] Subgroup analyses were conducted with the X^2 test. In the particular subgroup of patients with impaired FPG at baseline, Kaplan-Meier curves were performed. Preliminary assumptions were verified before all analyses. P<0.05 was considered significant. All analyses were performed using SAS version 8.2 (SAS Institute, Inc).

[5] = tested on: high-risk patients with no evidence of left ventricular dysfunction; conditions: cited from earlier work

CC(C)NCC(O)COc1ccc(CC(N)=O)cc1 (stereo not drawn) [atenolol]
patients who developed diabetes [1]: 8%

CCOc1nc2cccc(C(=O)O)c2n1Cc1ccc(-c2ccccc2-c2nnn[nH]2)cc1 [candesartan]
relative reduction in the incidence of diabetes (Elderly): 20%

C[C@H](CS)C(=O)N1CCC[C@H]1C(=O)O [captopril]
relative risk of developing diabetes (RR) (hypertensive population): 0.86

COc1ccccc1OCCNCC(O)COc1cccc2[nH]c3ccccc3c12 (stereo not drawn) [carvedilol]
effect on insulin sensitivity [2]: favorable effect on insulin sensitivity

CCOC(=O)[C@H](CCc1ccccc1)N[C@@H](C)C(=O)N1CCC[C@H]1C(=O)O [enalapril]
insulin sensitivity (hypertensive rats): improved insulin sensitivity
insulin sensitivity [3]: improved insulin sensitivity
probability of remaining free from diabetes during follow-up ([4]; Kaplan-Meier, enalapril vs placebo, P<0.0001, FIG. 1): significantly higher
New cases of diabetes, % ([4]; Prevention arm of the trial (n = 198)): 6.0%
Absolute Risk Reduction ([4]; Prevention arm of the trial (n = 198), enalapril vs placebo): 13.4%
New cases of diabetes, % ([4]; Treatment arm of the trial (n = 93)): 5.7%
Absolute Risk Reduction ([4]; Treatment arm of the trial (n = 93), enalapril vs placebo): 24.3%
relative risk [RR] of new-onset diabetes ([4]; enalapril vs placebo, total population): 0.26
New cases of diabetes, % ([4]; impaired FPG at baseline, IFG (n = 55)): 3.3%
Absolute Risk Reduction ([4]; impaired FPG at baseline, IFG (n = 55), enalapril vs placebo): 45%
Absolute Risk Reduction ([4]; impaired FPG at baseline, IFG (n = 55), enalapril vs placebo, listed as Enalapril): 44.7%
Hazard Ratio for development of diabetes ([4]; multivariate analysis, Cox regression model, 95% confidence intervals 0.10 to 0.46): 0.22
New cases of diabetes, % ([4]; normal FPG at baseline, NFG (n = 236)): 6.6%
Absolute Risk Reduction ([4]; normal FPG at baseline, NFG (n = 236), enalapril vs placebo): 10.7%
risk of developing diabetes (in words) ([4]; patients with left ventricular systolic dysfunction): markedly reduced the risk of developing diabetes; also recorded: markedly reduces the risk of developing diabetes mellitus
New cases of diabetes, % ([4]; total population (n = 291), enalapril 5 to 20 mg/day, mean follow-up 2.9 years): 5.9%
Absolute Risk Reduction ([4]; total population (n = 291), enalapril vs placebo): 16.5%
number of patients to treat to prevent one new case of diabetes ([4]; treated for 2.9 years): 6 patients

CCCCc1nc(Cl)c(CO)n1Cc1ccc(-c2ccccc2-c2nn[nH]n2)cc1 [losartan]
patients who developed diabetes [1]: 6%
RR of developing diabetes ([1]; losartan vs atenolol): 0.75

CCOC(=O)[C@H](CCc1ccccc1)N[C@@H](C)C(=O)N1[C@H](C(=O)O)C[C@@H]2CCC[C@@H]21 [ramipril]
RR of developing diabetes ([5]; ramipril vs placebo): 0.66
incidence of diabetes ([5]; treatment period of 4.5 years): 3.6%
reduction of the relative risk of developing diabetes ([5]; treatment period of 4.5 years, ramipril vs placebo): 34%

— patent publication US20040259932A1, “Method and compound to reduce the incidence of diabetes in a subject with chronic heart failure” (priority 2003, published 2004)
